Measured values from patent US20150320748A1, “AGENT FOR INHIBITING EXPRESSION OF LIPID METABOLISM RELATED MRNA” (KOWA CO., LTD., priority 2011, published 2015).

Legend:
[1] = molecular target: T1, cholesterol ester transfer protein (CETP) (Homo sapiens, UniProt P11597); assay: CETP inhibitory effect; type: biochemical; settings: no method or values printed
T1 sequence (P11597 18-493): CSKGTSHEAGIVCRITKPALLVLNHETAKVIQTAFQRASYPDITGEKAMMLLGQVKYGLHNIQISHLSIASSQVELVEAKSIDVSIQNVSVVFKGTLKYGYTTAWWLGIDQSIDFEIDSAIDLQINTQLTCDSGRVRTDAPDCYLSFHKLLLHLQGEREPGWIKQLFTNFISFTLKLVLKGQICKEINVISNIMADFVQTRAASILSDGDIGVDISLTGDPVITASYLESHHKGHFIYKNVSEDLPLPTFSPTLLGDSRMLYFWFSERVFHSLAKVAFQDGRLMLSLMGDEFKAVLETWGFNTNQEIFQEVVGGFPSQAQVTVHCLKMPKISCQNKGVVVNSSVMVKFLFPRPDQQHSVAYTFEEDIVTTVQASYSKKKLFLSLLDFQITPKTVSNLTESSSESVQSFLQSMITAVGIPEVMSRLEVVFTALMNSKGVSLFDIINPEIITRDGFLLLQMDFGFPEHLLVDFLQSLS

SREBP1c mRNA = assay: Expression level of SREBP1c mRNA in HepG2 cells by real-time quantitative RT-PCR; type: cell-based, human; settings: 0.1, 1, 10 mM DMSO solutions added at 1 to 1000, corrected by β-Actin mRNA, FIG. 2
Experimental: The test compound 2 was added to the HepG2 cells of human liver cancer cell line, cultured for 24 hours, and then the expression level of SREBP1c mRNA was measured by real-time quantitative RT-PCR. More specifically, the HepG2 cells were seeded on a 24-well plate at a concentration of 2×10^5 cells/well, and cultured overnight. The test compound 2 was dissolved in dimethyl sulf oxide (DMSO) at concentrations of 0.1 mM, 1 mM, and 10 mM, and added to the culture solution at the rate of 1 to 1000. The mixture was cultured for 8 hours in a CO2 incubator at 37° C., and then 500 μL of ISOGEN (Nippon Gene Co., Ltd., catalogue No. 31-02501) was added, and the total RNA was extracted. […] The expression level of human SREBP1c mRNA was measured using a TaqMan probe 5′-[sequence]-3′ (SEQ ID NO. 3), a sense primer: 5′-[sequence]-3′ (SEQ ID NO. 4), and an antisense primer 5′-[sequence]-3′ (SEQ ID NO. 5), which are specific to human SREBP1c, and TaqMan Fast Universal PCR Master Mix (Applied Biosystems, catalogue No. 4367846). […]
The measurement value was corrected by the expression level of β-Actin mRNA. The expression level of SREBP1c mRNA in the cells mixed with DMSO alone was set at 1, and the expression level of SREBP1c mRNA in the cells mixed with the test compound 2 was calculated as relative value.

SCD-1 mRNA = assay: Expression level of SCD-1 mRNA in HepG2 cells by real-time quantitative RT-PCR; type: cell-based, human; settings: 0.1, 1, 10 mM DMSO solutions added at 1 to 1000, corrected by β-Actin mRNA, FIG. 3
Experimental: More specifically, the HepG2 cells were seeded on a 24-well plate at a concentration of 2×10^5 cells/well, and cultured overnight. […] The mixture was cultured for 8 hours in a CO2 incubator at 37° C., and then 500 μL of ISOGEN (Nippon Gene Co., Ltd., catalogue No. 31-02501) was added, and the total RNA was extracted. From the extracted total RNA, cDNA was synthesized using High Capacity cDNA Reverse Transcription kit (Applied Biosystems, catalogue No. 4368813). The expression level of human SCD-1 was measured using a primer 5′-[sequence]-3′ (SEQ ID NO. 6), an antisense primer 5′-[sequence]-3′ (SEQ ID NO. 7), which are specific to human SCD-1, and Fast SYBR Green master mix (Applied Biosystems, catalogue No. 4385614). The measurement instrument was 7900HT Fast Realtime PCR system.
The measurement value was corrected by the expression level of β-Actin mRNA.

| CETP inhibitory effect (test compound 2 compared with Anacetrapib) [1] | SMILES | decrease of the expression level of SREBP1c mRNA (relative value, DMSO alone = 1) (SREBP1c mRNA) | decrease of the expression level of SCD-1 mRNA (relative value, DMSO alone = 1) (SCD-1 mRNA) |
| --- | --- | --- | --- |
| equal | COc1cc(F)c(C(C)C)cc1-c1ccc(C(F)(F)F)cc1CN1C(=O)O[C@H](c2cc(C(F)(F)F)cc(C(F)(F)F)c2)[C@@H]1C [Anacetrapib, (4S,5R) -5-[3,5-bis(trifluoromethyl)phenyl]-3-({2-[4-fluoro-2-methoxy-5-(propane-2-yl)phenyl]-5-(trifluoromethyl)phenyl}methyl)-4-methyl-1,3-oxazolidine-2-one, reference compound] | – | – |
| equal | CCN(C[C@H]1CC[C@H](CC(=O)O)CC1)c1ccc(C(F)(F)F)cc1CN(c1ncc(OCCS(C)(=O)=O)cn1)[C@@H](C)c1cc(C(F)(F)F)cc(C(F)(F)F)c1 [compound 2] | evidently stronger than that of Anacetrapib | evidently stronger than that of Anacetrapib |
